Measurements published in US20240336588A1, “COMPOSITIONS AND METHODS FOR ANTIOXIDANT AND ANTI-INFLAMMATORY THERAPEUTICS” (AVANTI BIOSCIENCES INC., priority 2021, published 2024).

These molecules were tested against DYRK1A (HT-497, 6×His tagged rat truncated DYRK1A isoform X1 residues 1-497) (Rattus norvegicus (Rat), UniProt Q63470) (assay: DYRK1A ELISA assay (HT-PRD phosphorylation)). Conditions: 100 µM ATP, 5 ng HT-497, 30 min at 30° C.
Assay type: biochemical
Procedure: Compounds of Table 1, above, were examined in vitro for activity against DYRK1A, DYRK1B, DYRK2 via an ELISA assay.
DYRK1A assay. […] After blocking, wells were washed extensively with dilution buffer before subjecting to phosphorylation. […] At the end point, wells were washed with ˜350 μl dilution buffer three times to terminate the reaction. […] Each point was run in quadruplicate with DMSO present in all assays at 0.2% final concentration. […] HT-PRD phosphorylation was subsequently determined by the sandwich antibody staining protocol, first with 100 μl mouse mAb 3D3 specific for detecting DYRK1A-phosphorylated PRD (60 min at room temperature) then with 100 μl alkaline phosphatase (AP)-linked anti-mouse secondary antibody (60 min at room temperature), followed by colorimetric reaction with 100 μl PNPP solution (PNPP substrate tablet, Thermo Fisher). […] The readings were then recorded for subsequent IC50 calculation. The DYRK1A assay protocol can also support DYRK1B and DYRK2 phosphorylation reactions in the enzyme concentration-dependent manner; therefore, the method was adapted for measuring the activity of candidate compounds against DYRK1B and DYRK2. For DYRK2, the reactions were performed as described above with 6 ng HT-DYRK2 (6×His tagged full-length human DYRK2 isoform 1). For DYRK1B, the assays were also similarly conducted but with 70 ng GST-DYRK1B (glutathione S-transferase tagged full length human DYRK1B isoform p65) and an extended kinase reaction time of 60 min.
Dilution factors for both mAb 3D3 and secondary antibody were pre-determined for each batch of antibody to ensure that neither antibody was limiting in the assay.
Data transformation, calculation, plotting, curve fitting, and IC 50 calculation were performed in KaleidaGraph (http://www.synergy.com/wordpress_650164087; Mac version 4.1). Data was corrected for background (readings from wells with only PNPP) before subsequent manipulations. […] The resulting residual activity was then plotted against its corresponding inhibitor concentrations in semi-log graph and the plot was fit to the sigmoidal equation, y=a+(b−a)/(1+(x/c)^d), for IC50 calculation.
In the case of `CCNC(=O)Oc1cc(O)c2c(c1)O[C@H](c1cc(O)c(O)c(O)c1)[C@H](OC(=O)c1cc(O)c(O)c(O)c1)C2` [Compound 70, (2R,3R)-7-((ethylcarbamoyl)oxy)-5-hydroxy-2-(3,4,5-trihydroxyphenyl)chroman-3-yl 3,4,5-trihydroxybenzoate], the IC50 is reported as over 100 nM. In the case of `O=C(O[C@@H]1Cc2c(O)cc(O)cc2O[C@H]1c1cc(O)c(O)c(O)c1)c1cc(O)c(O)c(F)c1` [Compound 66, (2S,3R)-5,7-dihydroxy-2-(3,4,5-trihydroxyphenyl)chroman-3-yl 3-fluoro-4,5-dihydroxybenzoate], the IC50 is reported as over 100 nM. Work on `Nc1ncc(C(=O)O[C@H]2Cc3c(O)cc(O)cc3O[C@@H]2c2ccc(O)c(O)c2)cc1O` [Compound 29, (2R,3S)-2-(3,4-dihydroxyphenyl)-5,7-dihydroxychroman-3-yl 6-amino-5-hydroxynicotinate] yielded an IC50 of over 1000 nM. In the case of `Nc1ccc(C(=O)O[C@@H]2Cc3c(O)cc(O)cc3O[C@H]2c2cc(O)c(O)c(O)c2)cc1O` [Compound 35, (2S,3R)-5,7-dihydroxy-2-(3,4,5-trihydroxyphenyl)chroman-3-yl 4-amino-3-hydroxybenzoate], the IC50 is reported as over 1000 nM. Work on `CC(C)Oc1c(O)c(O)c(F)c(C(=O)O[C@@H]2Cc3c(O)cc(O)cc3O[C@H]2c2cc(O)c(O)c(O)c2)c1F` [Compound 61, (2S,3R)-5,7-dihydroxy-2-(3,4,5-trihydroxyphenyl)chroman-3-yl 2,6-difluoro-3,4-dihydroxy-5-isopropoxybenzoate] yielded an IC50 of over 100 nM. For `COc1c(O)c(O)c(F)c(C(=O)O[C@@H]2Cc3c(O)cc(O)cc3O[C@H]2c2cc(O)c(O)c(O)c2)c1F` [Compound 59, (2S,3R)-5,7-dihydroxy-2-(3,4,5-trihydroxyphenyl)chroman-3-yl 2,6-difluoro-3,4-dihydroxy-5-methoxybenzoate], the IC50 was over 100 nM. `COc1cc(C(=O)N[C@H]2Cc3c(O)cc(O)cc3O[C@@H]2c2cc(O)c(O)c(O)c2)cc(O)c1O` [Compound 10, N-((2R,3S)-5,7-dihydroxy-2-(3,4,5-trihydroxyphenyl)chroman-3-yl)-3,4-dihydroxy-5-methoxybenzamide] gave an IC50 of over 1000 nM. `O=C(O[C@@H]1Cc2c(O)cc(O)cc2O[C@H]1c1cc(O)c(O)c(O)c1)[C@H]1CC[C@@H](O)CC1` [Compound 43, (2S,3R)-5,7-dihydroxy-2-(3,4,5-trihydroxyphenyl)chroman-3-yl (1s,4S)-4-hydroxycyclohexane-1-carboxylate] showed an IC50 of over 1000 nM. Work on `Cc1c(C(=O)O[C@@H]2Cc3c(O)cc(O)cc3O[C@H]2c2cc(O)c(O)c(O)c2)ccc(O)c1O` [Compound 63, (2S,3R)-5,7-dihydroxy-2-(3,4,5-trihydroxyphenyl)chroman-3-yl 3,4-dihydroxy-2-methylbenzoate] yielded an IC50 of over 100 nM. `O=C(O[C@@H]1Cc2c(O)cc(O)cc2O[C@H]1c1cc(O)c(O)c(O)c1)c1cc(O)c(O)c(OC(F)F)c1` [Compound 60, (2S,3R)-5,7-dihydroxy-2-(3,4,5-trihydroxyphenyl)chroman-3-yl 3-(difluoromethoxy)-4,5-dihydroxybenzoate] was tested, and the IC50 was over 100 nM. `O=C(O[C@H]1Cc2c(O)cc(O)cc2O[C@@H]1c1cc(O)c(O)c(O)c1)c1ccncc1` [Compound 22, (2R,3S)-5,7-dihydroxy-2-(3,4,5-trihydroxyphenyl)chroman-3-yl isonicotinate] was tested, and the IC50 was over 1000 nM. Molecule `COc1cc(C(=O)O[C@H]2Cc3c(O)cc(O)cc3O[C@@H]2c2cc(O)c(O)c(O)c2)cc(O)c1O` [Compound 18, (2R,3S)-5,7-dihydroxy-2-(3,4,5-trihydroxyphenyl)chroman-3-yl 3,4-dihydroxy-5-methoxybenzoate] has an IC50 of over 100 nM. In the case of `O=C(O[C@H]1Cc2c(O)cc(O)cc2O[C@@H]1c1ccc(O)c(O)c1)c1ccc(O)c(O)c1` [Compound 28, (2R,3S)-2-(3,4-dihydroxyphenyl)-5,7-dihydroxychroman-3-yl 3,4-dihydroxybenzoate], the IC50 is reported as over 1000 nM. `O=C(O[C@@H]1Cc2c(O)cc(O)cc2O[C@@H]1c1cc(O)c(O)c(O)c1)c1ccncc1` [Compound 23, (2R,3R)-5,7-dihydroxy-2-(3,4,5-trihydroxyphenyl)chroman-3-yl isonicotinate] gave an IC50 of over 1000 nM. For `O=C(O[C@@H]1Cc2c(O)cc(O)cc2O[C@@H]1c1cc(O)c(O)c(O)c1)c1ccc(O)cc1` [Compound 21, (2R,3R)-5,7-dihydroxy-2-(3,4,5-trihydroxyphenyl)chroman-3-yl 4-hydroxybenzoate], the IC50 was over 1000 nM. For `CC(C)C(=O)Oc1c(O)cc(C(=O)O[C@@H]2Cc3c(O)cc(O)cc3O[C@@H]2c2cc(O)c(O)c(O)c2)cc1O` [Compound 14, (2R,3R)-5,7-dihydroxy-2-(3,4,5-trihydroxyphenyl)chroman-3-yl 3,5-dihydroxy-4-(isobutyryloxy)benzoate], the IC50 was over 100 nM. For `CS(=O)(=O)Nc1ccc(C(=O)O[C@@H]2Cc3c(O)cc(O)cc3O[C@H]2c2cc(O)c(O)c(O)c2)cc1O` [Compound 37, (2S,3R)-5,7-dihydroxy-2-(3,4,5-trihydroxyphenyl)chroman-3-yl 3-hydroxy-4-(methylsulfonamido)benzoate], the IC50 was over 1000 nM. In the case of `O=C(O[C@@H]1Cc2c(O)cc(O)cc2O[C@H]1c1cc(O)c(O)c(O)c1)c1ccc(O)c(O)c1` [Compound 34, (2S,3R)-5,7-dihydroxy-2-(3,4,5-trihydroxyphenyl)chroman-3-yl 3,4-dihydroxybenzoate], the IC50 is reported as over 100 nM. Work on `O=C(O[C@H]1Cc2c(O)cc(O)cc2O[C@@H]1c1cc(O)c(O)c(O)c1)c1ccc(F)c(F)c1` [Compound 24, (2R,3S)-5,7-dihydroxy-2-(3,4,5-trihydroxyphenyl)chroman-3-yl 3,4-difluorobenzoate] yielded an IC50 of over 1000 nM. `O=C(O[C@@H]1Cc2c(O)cc(O)cc2O[C@@H]1c1cc(O)c(O)c(O)c1)c1ccc(F)c(F)c1` [Compound 25, (2R,3R)-5,7-dihydroxy-2-(3,4,5-trihydroxyphenyl)chroman-3-yl 3,4-difluorobenzoate] showed an IC50 of over 1000 nM. `CCC(=O)Oc1cc(O)c2c(c1)O[C@H](c1cc(O)c(O)c(O)c1)[C@H](OC(=O)c1cc(O)c(O)c(O)c1)C2` [Compound 69, (2R,3R)-5-hydroxy-7-(propionyloxy)-2-(3,4,5-trihydroxyphenyl)chroman-3-yl 3,4,5-trihydroxybenzoate] was tested, and the IC50 was over 100 nM. In the case of `Nc1ncc(C(=O)O[C@@H]2Cc3c(O)cc(O)cc3O[C@H]2c2cc(O)c(O)c(O)c2)cc1O` [Compound 36, (2S,3R)-5,7-dihydroxy-2-(3,4,5-trihydroxyphenyl)chroman-3-yl 6-amino-5-hydroxynicotinate], the IC50 is reported as over 1000 nM. With `O=C(N[C@H]1Cc2c(O)cc(O)cc2O[C@@H]1c1cc(O)c(O)c(O)c1)c1ccc(F)c(F)c1` [Compound 17, N-((2R,3S)-5,7-dihydroxy-2-(3,4,5-trihydroxyphenyl)chroman-3-yl)-3,4-difluorobenzamide] the IC50 was over 1000 nM. `O=C(O[C@@H]1Cc2c(O)cc(O)cc2O[C@H]1c1ccc(O)c(O)c1)c1cc(O)c(O)c(O)c1` [Compound 7, (2S,3R)-2-(3,4-dihydroxyphenyl)-5,7-dihydroxychroman-3-yl 3,4,5-trihydroxybenzoate] gave an IC50 of over 100 nM. `O=C(O[C@@H]1Cc2c(O)cc(O)cc2O[C@H]1c1cc(O)c(O)c(O)c1)c1cc(OC(F)F)c(O)c(O)c1F` [Compound 65, (2S,3R)-5,7-dihydroxy-2-(3,4,5-trihydroxyphenyl)chroman-3-yl 5-(difluoromethoxy)-2-fluoro-3,4-dihydroxybenzoate] showed an IC50 of over 100 nM. Molecule `CCNC(=O)Oc1c(O)cc(C(=O)O[C@@H]2Cc3c(O)cc(O)cc3O[C@@H]2c2cc(O)c(O)c(O)c2)cc1O` [Compound 13, (2R,3R)-5,7-dihydroxy-2-(3,4,5-trihydroxyphenyl)chroman-3-yl 4-((ethylcarbamoyl)oxy)-3,5-dihydroxybenzoate] has an IC50 of over 1000 nM. `O=C(O[C@@H]1Cc2c(O)cc(O)cc2O[C@@H]1c1cc(O)c(O)c(O)c1)c1ccn(O)c(=O)c1` [Compound 26, (2R,3R)-5,7-dihydroxy-2-(3,4,5-trihydroxyphenyl)chroman-3-yl 1-hydroxy-2-oxo-1,2-dihydropyridine-4-carboxylate] showed an IC50 of over 1000 nM. In the case of `O=C(O[C@@H]1Cc2c(O)cc(O)cc2O[C@H]1c1cc(O)c(O)c(O)c1)[C@H]1CC[C@H](O)CC1` [Compound 44, (2S,3R)-5,7-dihydroxy-2-(3,4,5-trihydroxyphenyl)chroman-3-yl (1r,4R)-4-hydroxycyclohexane-1-carboxylate], the IC50 is reported as over 1000 nM. With `O=C(O[C@@H]1Cc2c(O)cc(O)cc2O[C@H]1c1cc(O)c(O)c(O)c1)c1cc(O)c(O)cc1C(F)(F)F` [Compound 62, (2S,3R)-5,7-dihydroxy-2-(3,4,5-trihydroxyphenyl)chroman-3-yl 4,5-dihydroxy-2-(trifluoromethyl)benzoate] the IC50 was over 100 nM. With `O=C(O[C@H]1Cc2c(O)cc(O)cc2O[C@@H]1c1cc(O)c(O)c(O)c1)c1ccc(O)cc1` [Compound 20, (2R,3S)-5,7-dihydroxy-2-(3,4,5-trihydroxyphenyl)chroman-3-yl 4-hydroxybenzoate] the IC50 was over 1000 nM.
